Reference: ChEMBL document CHEMBL5584221, “Anti-inflammatory and Neuroprotective α-Pyrones from a Marine-Derived Strain of the Fungus Arthrinium arundinis and Their Heterologous Expression” (2024)
Calls of active or inactive are those of the source. No cut-off for these calls is given here.

Experiments:
BV-2 [1] = experiment: Antiinflammatory activity against mouse BV-2 cells assessed as inhibition of LPS-induced nitric oxide release at 20 uM measured after 24 hrs by Griess reagent based ELISA relative to control; format: functional
BV-2 [2] = experiment: Antiinflammatory activity against mouse BV-2 cells assessed as inhibition of LPS-induced decrease of IL-4 at 2 to 20 uM measured after 24 hrs by ELISA; format: functional, cell-based; conditions: dose 2-20 µM
BV-2 [3] = experiment: Antiinflammatory activity against mouse BV-2 cells assessed as inhibition of LPS-induced TNF-alpha production at 2 to 20 uM measured after 24 hrs by ELISA; format: functional, cell-based; conditions: dose 2-20 µM
BV-2 [4] = experiment: Antiinflammatory activity against mouse BV-2 cells assessed as effect on LPS-induced TGFbeta mRNA expression at 20 uM measured after 24 hrs by SYBR green staining based RT-PCR analysis; format: functional, cell-based
BV-2 [5] = experiment: Antiinflammatory activity against mouse BV-2 cells assessed as effect on LPS-induced CD206 mRNA expression at 20 uM measured after 24 hrs by SYBR green staining based RT-PCR analysis; format: functional, cell-based
BV-2 [6] = experiment: Antiinflammatory activity against mouse BV-2 cells assessed as inhibition of LPS-induced iNOS mRNA expression at 20 uM measured after 24 hrs by SYBR green staining based RT-PCR analysis; format: functional, cell-based
BV-2 [7] = experiment: Antiinflammatory activity against mouse BV-2 cells assessed as effect on LPS-induced Arg1 mRNA expression at 20 uM measured after 24 hrs by SYBR green staining based RT-PCR analysis; format: functional, cell-based
BV-2 [8] = experiment: Antiinflammatory activity against mouse BV-2 cells assessed as inhibition of LPS-induced IFN-gamma production at 2 to 20 uM measured after 24 hrs by ELISA; format: functional, cell-based; conditions: dose 2-20 µM
Cortical neurone [9] = experiment: Neuroprotective activity against amyloid beta (25 to 35 residues)-induced cell death in ICR mouse primary cortical neurons assessed as increase in cell viability at 20 uM measured after 2 days by CCK-8 assay; format: functional, cell-based; conditions: time 2.0 day
BV-2 [10] = experiment: Antiinflammatory activity against mouse BV-2 cells assessed as inhibition of LPS-induced decrease of IL-10 at 2 to 20 uM measured after 24 hrs by ELISA; format: functional, cell-based; conditions: dose 2-20 µM
Cortical neurone [11] = experiment: Neuroprotective activity against amyloid beta (25 to 35 residues)-induced neuritic atrophy in ICR mouse primary cortical neurons assessed as increase in length of MAP2-positive dendrite at 2 to 20 uM measured after 4 days by immunostaining based fluorescence microscopy; format: functional, cell-based; conditions: dose 2-20 µM, time 4.0 day

CCC(C)(O)/C=C(\CO)CCCC(/C=C(C)/C=C(\C)C[C@@H](C)c1oc(=O)c(C)c(O)c1C)C(=O)O (some centres undefined) showed an inhibition at 20 µM (BV-2 [1]) of over 50%.

Molecule CC1=C[C@@](CO)(CCCC(/C=C(C)/C=C(\C)C[C@@H](C)c2oc(=O)c(C)c(O)c2C)C(=O)O)O[C@H]1C (some centres undefined) has an inhibition at 20 µM (BV-2 [1]) of over 50%.

CC(=C\C(CCCc1cc(C)c(C)o1)C(=O)O)/C=C(\C)C[C@@H](C)c1oc(=O)c(C)c(O)c1C (some centres undefined) was tested, and the inhibition (BV-2 [2]) was “Active”, the inhibition (BV-2 [3]) was “Active” and the Activity (BV-2 [4]) was “inactive”. The Activity (BV-2 [5]) was “inactive”, the inhibition (BV-2 [6]) was “Active” and the Activity (BV-2 [7]) was “inactive”. The inhibition (BV-2 [8]) was “Active”, the Activity (Cortical neurone [9]) was “Active” and the inhibition (BV-2 [10]) was “Active”. The inhibition at 20 µM (BV-2 [1]) was over 50% and the Activity (Cortical neurone [11]) was “Active”.

Work on CCC(C)/C=C(\CO)CCCC(/C=C(C)/C=C(\C)C[C@@H](C)c1oc(=O)c(C)c(O)c1C)C(=O)O (some centres undefined) yielded an inhibition at 20 µM (BV-2 [1]) of over 50%.
